Source: patent publication US8778935B2 (Centro Nacional de Investigaciones Oncologicas (CNIO), priority 2009, dated 2014)
Like-named read-outs stand apart in the source and are kept apart here.

Columns and labels:
[1] = molecular target: T1, PI3K (p110α/p85α) (Homo sapiens, UniProt P42336); assay: PI3K Activity Assay (ADP Hunter Plus); type: biochemical
T1 construct: purchased Carna Biosciences 07CBS-0402A
Description: The kinase activity was measured by using the commercial ADP Hunter™ Plus assay available from DiscoveRx (#33-016), which is a homogeneous assay to measure the accumulation of ADP, a universal product of kinase activity. […] Reaction was carried out for 1 hour at 25° C. Reagent A and B were sequentially added to the wells and plates were incubated for 30 min at 37° C. […] Values were normalized against the control activity included for each enzyme (i.e., 100% PI3 kinase activity, without compound). These values were plot against the inhibitor concentration and were fit to a sigmoid dose-response curve by using the Graphad software.

[2] = tested on: phospho-Ser-473-Akt; assay: PI3K signalling: AKT phosphorylation inhibition, Western blot analysis; type: cell-based; conditions: Homo sapiens, cell assay, read-out: IC50 of AKT Phosphorylation Inhibition (p-AKT cell)
Description: Cell culture: The cell lines were obtained from the American Type Culture Collection (ATCC). U2OS (human osteosarcoma) was cultured in Dulbecco's modified Eagle's medium (DMEM). PC3 (human prostate carcinoma), MCF7 (human breast cardinoma), HCT116 (human colon carcinoma), […], U251 (human glyoblastoma) were grown in RPMI. All media were supplemented with 10% fetal bovine serum (FBS) (Sigma) and antibiotics-antimycotics. Cell were maintained in a humidified incubator at 37° C. with 5% CO2 and passaged when confluent using trypsin/EDTA.
AKT phosphorylation Inhibition. Western Blot Analysis: Subconfluent cells were incubated under different conditions and washed twice with TBS prior to lysis. Lysis buffer was added containing 50 mM Tris HCl, 150 mM NaCl, 1% NP-40, 2 mM Na3VO4, 100 mM NaF, 20 mM Na4P2O7 and protease inhibitor cocktail (Roche Molecular Biochemicals). The proteins were resolved on 10% SDS-PAGE and transferred to nitrocellulose membrane (Schleicher & Schuell, Dassel, Germany). The membranes were incubated overnight at 4° C. with antibodies specific for Akt, phospho-Ser-473-Akt (Cell Signaling Technology) and α-tubulin (Sigma), they were washed and then incubated with IRDye800 conjugated anti-mouse and Alexa Fluor 680 goat anti-rabbit IgG secondary antibodies. The bands were visualized using an Odyssey infrared imaging system (Li-Cor Biosciences).

[3] = quantitative results, read-out: PI3Kα IC50
[4] = semi-quantitative results, read-out: PI3Kα IC50 (semi-quantitative class)
[5] = quantitative results of Table 4, read-out: PI3Kα IC50
[6] = PI3Kα activity, quantitative results, read-out: PI3Kα IC50

T1 sequence (P42336 whole entry): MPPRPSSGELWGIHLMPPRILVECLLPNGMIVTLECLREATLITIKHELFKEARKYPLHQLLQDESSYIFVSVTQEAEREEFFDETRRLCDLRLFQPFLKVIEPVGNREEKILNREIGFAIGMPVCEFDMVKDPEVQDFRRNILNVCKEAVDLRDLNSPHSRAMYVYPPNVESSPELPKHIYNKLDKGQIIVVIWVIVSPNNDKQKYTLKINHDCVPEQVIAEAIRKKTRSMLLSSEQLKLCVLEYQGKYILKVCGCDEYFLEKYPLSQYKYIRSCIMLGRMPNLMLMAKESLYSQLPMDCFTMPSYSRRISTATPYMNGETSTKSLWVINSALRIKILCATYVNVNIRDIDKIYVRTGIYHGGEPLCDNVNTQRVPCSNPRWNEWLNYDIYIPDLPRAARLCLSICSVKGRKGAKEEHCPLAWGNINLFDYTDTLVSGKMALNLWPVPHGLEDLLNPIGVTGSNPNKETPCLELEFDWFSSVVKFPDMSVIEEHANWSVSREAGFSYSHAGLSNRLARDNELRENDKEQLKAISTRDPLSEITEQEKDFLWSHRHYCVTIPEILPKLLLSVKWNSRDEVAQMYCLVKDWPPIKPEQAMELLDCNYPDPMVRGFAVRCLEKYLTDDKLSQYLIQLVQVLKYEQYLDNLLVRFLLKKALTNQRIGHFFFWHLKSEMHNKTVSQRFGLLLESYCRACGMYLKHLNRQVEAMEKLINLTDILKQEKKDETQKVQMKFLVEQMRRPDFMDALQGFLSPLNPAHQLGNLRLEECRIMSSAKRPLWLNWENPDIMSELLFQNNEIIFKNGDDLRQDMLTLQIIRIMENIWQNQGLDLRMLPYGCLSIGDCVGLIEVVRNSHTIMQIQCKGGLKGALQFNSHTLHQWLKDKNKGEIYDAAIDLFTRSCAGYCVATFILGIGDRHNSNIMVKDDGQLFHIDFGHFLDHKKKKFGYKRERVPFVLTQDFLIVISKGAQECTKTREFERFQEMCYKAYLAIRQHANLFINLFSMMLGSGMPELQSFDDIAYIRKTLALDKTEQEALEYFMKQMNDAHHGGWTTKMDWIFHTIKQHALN
T1 sequence (P27986 whole entry partner): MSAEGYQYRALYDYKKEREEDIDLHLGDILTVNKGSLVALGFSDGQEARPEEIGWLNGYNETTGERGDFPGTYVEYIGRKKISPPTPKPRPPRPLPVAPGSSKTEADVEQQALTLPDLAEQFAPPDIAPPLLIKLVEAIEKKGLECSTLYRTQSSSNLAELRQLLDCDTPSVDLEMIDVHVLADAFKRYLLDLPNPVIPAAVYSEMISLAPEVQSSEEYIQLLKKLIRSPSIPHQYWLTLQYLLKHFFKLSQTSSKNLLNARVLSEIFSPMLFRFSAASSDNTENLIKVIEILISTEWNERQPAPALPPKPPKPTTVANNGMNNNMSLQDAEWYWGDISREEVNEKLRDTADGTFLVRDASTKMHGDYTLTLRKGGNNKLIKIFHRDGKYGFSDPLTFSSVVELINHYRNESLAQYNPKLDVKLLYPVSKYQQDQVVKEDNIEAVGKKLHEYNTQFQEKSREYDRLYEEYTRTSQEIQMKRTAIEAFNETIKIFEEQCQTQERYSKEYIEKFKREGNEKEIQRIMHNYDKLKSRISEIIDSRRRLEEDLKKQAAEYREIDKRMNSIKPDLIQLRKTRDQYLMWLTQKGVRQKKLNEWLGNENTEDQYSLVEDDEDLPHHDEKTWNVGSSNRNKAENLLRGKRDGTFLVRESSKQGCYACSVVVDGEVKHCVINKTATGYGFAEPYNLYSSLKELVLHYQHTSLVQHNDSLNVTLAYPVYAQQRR

Row | SMILES | IC50 [2] | IC50 [1, 6] | also measured
1 | CCOC(=O)c1cn2cc(-c3cccc(O)c3)nc(N3CCOCC3)c2n1 [2-01, ethyl 6-(3-hydroxyphenyl)-8-morpholinoimidazo[1,2-a]pyrazine-2-carboxylate] | 132 nM |  | IC50 [1, 3]: 158 nM; IC50 [1, 4]: 100 to 1000 nM
2 | CS(=O)(=O)N1CCN(Cc2cn3cc(-c4cccc(O)c4)nc(N4CCOCC4)c3n2)CC1 [2-10, 1-(4-((6-(3-hydroxyphenyl)-8-morpholinoimidazo[1,2-a]pyrazin-2-yl)methyl)-piperazin-1-yl)sulfonylmethane] | 48 nM |  | 
3 | Oc1cccc(-c2cn3cc(C(F)(F)F)nc3c(N3CCOCC3)n2)c1 [2-13, 3-(2-(trifluoromethyl)-8-morpholinoimidazo[1,2-a]pyrazin-6-yl)phenol] | 714 nM |  | IC50 [1, 3]: 108 nM; IC50 [1, 4]: 100 to 1000 nM
4 | CS(=O)(=O)N1CCN(C(=O)c2cn3cc(-c4cccc5[nH]ncc45)nc(N4CCOCC4)c3n2)CC1 [2-16, (6-(1H-indazol-4-yl)-8-morpholinoimidazo[1,2-a]pyrazin-2-yl)(4-sulfonylmethyl-piperazin-1-yl)methanone] | 503 nM |  | IC50 [1, 3]: 254 nM
5 | CS(=O)(=O)N1CCN(Cc2cn3cc(-c4cccc5[nH]ncc45)nc(N4CCOCC4)c3n2)CC1 [2-17, 6-(1H-indazol-4-yl)-2-((4-sulfonylmethylpiperazin-1-yl)methyl)-8-morpholino-imidazo[1,2-a]pyrazine] | 391 nM |  | 
6 | CCNC(=O)c1cn2cc(-c3cccc4[nH]ncc34)nc(N3CCOCC3)c2n1 [2-74, N-ethyl-6-(1H-indazol-4-yl)-8-morpholinoimidazo[1,2-a]pyrazine-2-carboxamide] | 37 nM |  | IC50 [1, 3]: 92 nM
7 | CNC(=O)c1cn2cc(-c3cccc4[nH]ncc34)nc(N3CCOCC3)c2n1 [2-79] | 42 nM |  | IC50 [1, 3]: 110 nM
8 | NC(=O)c1cn2cc(-c3cccnc3)nc(N3CCCCC3)c2n1 [2-119] | 87 nM |  | IC50 [1, 5]: 93 nM
9 | O=C(NCCN1CCOCC1)c1cn2cc(-c3cccc4[nH]ncc34)nc(N3CCOCC3)c2n1 [2-142] | 116 nM |  | IC50 [1, 5]: 38 nM
10 | COCCNC(=O)c1cn2cc(-c3cccnc3)nc(N3CCOCC3)c2n1 [2-154] | 1050 nM |  | IC50 [1, 5]: 166 nM
11 | Nc1ncc(-c2cn3cc(C(=O)NCCN4CCOCC4)nc3c(N3CCOCC3)n2)cn1 [2-164] | 34 nM |  | IC50 [1, 5]: 11 nM
12 | Nc1ncc(-c2cn3cc(C4CC4)nc3c(N3CCOCC3)n2)cn1 [2-171] | 379 nM | 50 nM | 
13 | Nc1ncc(-c2cn3cc(C(F)(F)F)nc3c(N3CCOCC3)n2)cn1 [2-172] | 149 nM | 32 nM | 
14 | Nc1ncc(-c2cn3cc(CN4CCOCC4)nc3c(N3CCOCC3)n2)cn1 [2-175] | 469 nM | 83 nM | 
15 | Cc1cn2cc(-c3cnc(N)nc3)nc(N3CCOCC3)c2n1 [2-181] |  | 110 nM | 
16 | CCOC(=O)N1CCC(NC(=O)c2cn3cc(-c4cccc5[nH]ncc45)nc(N4CCOCC4)c3n2)CC1 [2-182] |  | 245 nM | 
17 | CS(=O)(=O)N1CCN(Cc2nc3c(N4CCOCC4)nc(-c4cccc5[nH]ncc45)cn3c2Br)CC1 [2-183] |  | 170 nM | 
18 | COCCNC(=O)c1cn2cc(-c3cccc4[nH]ncc34)nc(N3CCOCC3)c2n1 [2-186] | 281 nM | 66 nM | 
19 | CCOC(=O)N1CCC(NC(=O)c2cn3cc(-c4cnc(N)nc4)nc(N4CCOCC4)c3n2)CC1 [2-188] | 60 nM | 3 nM | 
20 | Nc1ncc(-c2cn3cc(C(=O)N[C@H]4CC[C@H](O)CC4)nc3c(N3CCOCC3)n2)cn1 [2-192] | 70 nM | 10 nM | 

Row | SMILES | IC50 [2] | IC50 [1, 6] | also measured
21 | Cc1ncc(-c2cn3cc(CN4CCN(S(C)(=O)=O)CC4)nc3c(N3CCOCC3)n2)cn1 [2-196] | 134 nM | 21 nM | 
22 | Cc1nc(N)ncc1-c1cn2cc(CN3CCN(S(C)(=O)=O)CC3)nc2c(N2CCOCC2)n1 [2-200] |  | 32 nM | 
23 | CS(=O)(=O)N1CCN(Cc2cn3cc(-c4ccc(C#N)nc4)nc(N4CCOCC4)c3n2)CC1 [2-201] |  | 3300 nM | 
24 | COc1ccncc1-c1cn2cc(CN3CCN(S(C)(=O)=O)CC3)nc2c(N2CCOCC2)n1 [2-204] |  | 10000 nM | 
25 | CS(=O)(=O)N1CCN(Cc2cn3c(Cl)c(-c4ccc(C#N)nc4)nc(N4CCOCC4)c3n2)CC1 [2-206] |  | 3700 nM | 
26 | CNc1ncc(-c2nc(N3CCOCC3)c3nc(CN4CCN(S(C)(=O)=O)CC4)cn3c2Cl)cn1 [2-207] |  | 11 nM | 
27 | C[C@@H]1CN(C(=O)OC(C)(C)C)C[C@H](C)N1Cc1cn2cc(-c3cnc(N)nc3)nc(N3CCOCC3)c2n1 [2-218] |  | 28 nM | 
28 | C[C@@H]1CN(S(C)(=O)=O)C[C@H](C)N1Cc1cn2cc(-c3cnc(N)nc3)nc(N3CCOCC3)c2n1 [2-219] | 244 nM | 3 nM | 
29 | CCS(=O)(=O)N1CCN(Cc2cn3cc(-c4cnc(N)nc4)nc(N4CCOCC4)c3n2)CC1 [2-220] | 98 nM | 13 nM | 
30 | CC(C)CS(=O)(=O)N1CCN(Cc2cn3cc(-c4cnc(N)nc4)nc(N4CCOCC4)c3n2)CC1 [2-221] | 135 nM | 11 nM | 
31 | Nc1ncc(-c2cn3cc(CN4CCS(=O)(=O)CC4)nc3c(N3CCOCC3)n2)cn1 [2-222] | 95 nM | 82 nM | 
32 | COC(=O)CC1COCCN1c1nc(-c2cnc(N)nc2)cn2cc(C)nc12 (stereo not shown) [2-224] |  | 25400 nM | 
33 | Nc1ncc(-c2cn3cc(CN4CCNCC4)nc3c(N3CCOCC3)n2)cn1 [2-226] |  | 77 nM | 
34 | COC(=O)C1COCCN1c1nc(-c2cnc(N)nc2)cn2cc(C)nc12 (stereo not shown) [2-227] |  | 6090 nM | 
35 | Nc1ncc(-c2cn3cc(CN4CCC(O)CC4)nc3c(N3CCOCC3)n2)cn1 [2-229] |  | 114 nM | 
36 | CN(C)CC(=O)N1CCN(Cc2cn3cc(-c4cnc(N)nc4)nc(N4CCOCC4)c3n2)CC1 [2-230] |  | 34 nM | 
37 | CC(=O)O[C@H](C)C(=O)N1CCN(Cc2cn3cc(-c4cnc(N)nc4)nc(N4CCOCC4)c3n2)CC1 [2-231] |  | 85 nM | 
38 | CC(C)(c1cn2cc(-c3cnc(N)nc3)nc(N3CCOCC3)c2n1)N1CCN(S(C)(=O)=O)CC1 [2-242] |  | 16 nM | 
39 | Cc1cnc2c(N3CCOCC3)nc(-c3ccc(NC(=O)Nc4cccc(C(=O)O)c4)cc3)cn12 [2-244] |  | 144 nM | 
